# In US20070099941A1, “N-arylalkyl-thienopyrimidin-4-amines and analogs as activators of caspases and inducers of apoptosis and the use thereof” (Cytovia, Inc., priority 2005, published 2007):
# Key:
# Assay type in all cases: cell-based
# [1] = test system: human colon cancer cell line HT29; experiment: Inhibition of cell proliferation (GI50, CellTiter-Glo) in HT29 cells; settings: HT-29, 48 h, dose for 50% inhibition of cell proliferation
# Procedure: (§1) Human breast cancer cell lines T-47D, MX-1 and MDAMB435, human colon cancer cell line HT29, and human lung cancer cell line H1299 were grown and harvested as in Example 26. An aliquot of […] of cells (4.4×10^4 cells/mL) was added to a well of a 96-well microtiter plate containing 5 μL of a 10% DMSO in RPMI-1640 media solution containing 10 nM to 100 μM of N-(3,4-methylenedioxybenzyl)-6-phenylthieno[3,2-d]pyrimidin-4-amine (1 nM to 10 μM final). An aliquot of 45 μL of cells was added to a well of a 96-well microtiter plate containing 5 μL of a 10% DMSO in RPMI-1640 media solution without compound as the control sample for maximal cell proliferation (LMax). The samples were mixed by agitation and then incubated at 37° C. for 48 h in a 5% CO2-95% humidity incubator. After incubation, the samples were removed from the incubator and 25 μL of CellTiter-Glo™ reagent (Promega) was added. The samples were mixed by agitation and incubated at room temperature for 10-15 min. Plates were then read using a luminescent plate reader (Model SPECTRAfluor Plus, Tecan) to give Ltest values.
# (§2) Baseline for GI50 (dose for 50% inhibition of cell proliferation) of initial cell numbers was determined by adding an aliquot of 45 μL of cells or 45 μL of media, respectively, to wells of a 96-well microtiter plate containing 5 μL of a 10% DMSO in RPMI-1640 media solution. The samples were mixed by agitation and then incubated at 37° C. for 0.5 h in a 5% CO2-95% humidity incubator. After incubation, the samples were removed from the incubator and 25 μL of CellTiter-Glo™ reagent (Promega) was added. The samples were mixed by agitation and incubated at 37° C. for 10-15 min at room temperature in a 5% CO2-95% humidity incubator. Fluorescence was read as above, (Lstart) defining luminescence for initial cell number used as baseline in GI50 determinations.
# (§3) GI50 (dose for 50% inhibition of cell proliferation) is the concentration where [(LTest−Lstart)/(LMax−Lstart)]=0.5.
# [2] = test system: human Burkitt's lymphoma cell line Namalwa; experiment: Caspase cascade activation assay in Namalwa cells; settings: Burkitts lymphoma cell, 48 h assay, read-out: Caspase Activation Potency EC50 Namalwa
# [3] = test system: human lung cancer cell line H1299; experiment: Inhibition of cell proliferation (GI50, CellTiter-Glo) in H1299 cells; settings: NCI-H1299, 48 h, dose for 50% inhibition of cell proliferation
# Procedure: as §1, §2, §3
# [4] = test system: human breast cancer cell line T-47D; experiment: Caspase cascade activation assay in T-47D cells; settings: T47D, 24 h or 48 h incubation, read-out: Caspase Activation Potency EC50 T-47D
# Procedure: (§4) Human breast cancer cell lines T-47D and human lung cancer cell line H1299 were grown according to media component mixtures designated by American Type Culture Collection+10% FCS (Invitrogen Corporation), in a 5% CO2-95% humidity incubator at 37° C. T-47D and H1299 cells were maintained at a cell density between 50 and 80% confluency at a cell density of 0.1 to 0.6×10^6 cells/mL. Cells were harvested at 600×g and resuspended at 0.65×10^6 cells/mL into appropriate media+10% FCS. An aliquot of 22.5 μL of cells was added to a well of a 384-well microtiter plate containing 2.5 μL of a 10% DMSO in RPMI-1640 media solution containing 0.16 to 100 μM of N-(3,4-methylenedioxybenzyl)-6-phenylthieno[3,2-d]pyrimidin-4-amine or other test compound (0.016 to 10 μM final). An aliquot of 22.5 μL of cells was added to a well of a 384-well microtiter plate containing 2.5 μL of a 10% DMSO in RPMI-1640 media solution without test compound as the control sample. The samples were mixed by agitation and then incubated at 37° C. for 24 h or 48 h in a 5% CO2-95% humidity incubator. After incubation, the samples were removed from the incubator and 25 μL of a solution containing 14 μM of N-(Ac-DEVD)-N′-ethoxycarbonyl-R110 (SEQ ID No.:1) fluorogenic substrate (Cytovia, Inc.; WO99/18856), 20% sucrose (Sigma), 20 mM DTT (Sigma), 200 mM NaCl (Sigma), 40 mM Na PIPES buffer pH 7.2 (Sigma), and 500 μg/mL lysolecithin (Calbiochem) was added. The samples were mixed by agitation and incubated at room temperature. Using a fluorescent plate reader (Model SPECTRAfluor Plus, Tecan), an initial reading (T=0) was made approximately 1-2 min after addition of the substrate solution, employing excitation at 485 nm and emission at 530 nm, to determine the background fluorescence of the control sample. After the 3 h incubation, the samples were read for fluorescence as above (T=3 h).
# (§5) The Relative Florescence Unit values (RFU) were used to calculate the sample readings as follows: RFU(T=3h)−Control RFU(T=0)=Net RFU(T=3h)
# (§6) The activity of caspase cascade activation was determined by the ratio of the net RFU value for N-(3,4-methylenedioxybenzyl)-6-phenylthieno[3,2-d]pyrimidin-4-amine (Example A) or other test compound to that of control samples. The EC50 (nM) was determined by a sigmoidal dose-response calculation (Prism 3.0, GraphPad Software Inc.).
# [5] = test system: human lung cancer cell line H1299; experiment: Caspase cascade activation assay in H1299 cells; settings: NCI-H1299, 24 h or 48 h incubation, read-out: Caspase Activation Potency EC50 H1299
# Procedure: as §4, §5, §6
# [6] = test system: human B cell lymphoblastoid cell line Ramos; experiment: Caspase cascade activation assay in Ramos cells; settings: 48 h assay, read-out: Caspase Activation Potency EC50 Ramos
# [7] = test system: human breast cancer cell line MX-1; experiment: Inhibition of cell proliferation (GI50, CellTiter-Glo) in MX-1 cells; settings: MX1 cells, 48 h, dose for 50% inhibition of cell proliferation
# Procedure: as §1, §2, §3
# [8] = test system: human breast cancer cell line MDAMB435; experiment: Inhibition of cell proliferation (GI50, CellTiter-Glo) in MDAMB435 cells; settings: MDA-MB-435, 48 h, dose for 50% inhibition of cell proliferation
# Procedure: as §1, §2, §3
# [9] = test system: human breast cancer cell line T-47D; experiment: Inhibition of cell proliferation (GI50, CellTiter-Glo) in T-47D cells; settings: T47D cells, 48 h, dose for 50% inhibition of cell proliferation
# Procedure: as §1, §2, §3
# [10] = test system: human lymphoma cell line Raji; experiment: Caspase cascade activation assay in Raji cells; settings: 48 h assay, read-out: Caspase Activation Potency EC50 Raji
# [11] = test system: human hepatocellular carcinoma cell line SNU398; experiment: Caspase cascade activation assay in SNU398 cells; settings: SNU-398, 48 h assay, read-out: Caspase Activation Potency EC50 SNU398
# [12] = test system: human colon carcinoma cell line HCT116; experiment: Caspase cascade activation assay in HCT116 cells; settings: HCT-116, 48 h assay, read-out: Caspase Activation Potency EC50 HCT116
GI50 [1],EC50 [2],GI50 [3],EC50 [4],EC50 [5],EC50 [6],GI50 [7],GI50 [8],GI50 [9],EC50 [10],EC50 [11],EC50 [12],Compound
5240 nM,1350 nM,1810 nM,563 nM,1600 nM,1830 nM,173 nM,155 nM,1290 nM,2760 nM,1450 nM,2530 nM,"c1cncc(-c2cc3ncnc(NCc4ccc5c(c4)OCO5)c3s2)c1 [Example 5, N-(3,4-Methylenedioxybenzyl)-6-(pyridin-3-yl)thieno[3,2-d]pyrimidin-4-amine]"
600 nM,633 nM,600 nM,903 nM,506 nM,624 nM,600 nM,129 nM,600 nM,1130 nM,738 nM,737 nM,"c1ccc(-c2cc3ncnc(NCc4ccc5c(c4)OCO5)c3s2)cc1 [Example A, N-(3,4-methylenedioxybenzyl)-6-phenylthieno[3,2-d]pyrimidin-4-amine]"
